Results: patent US20240058344A1, “METHODS OF TREATING NEURODEGENERATIVE DISORDERS AND STAT3-LINKED CANCERS USING SUPPRESSORS OF ELECTRON LEAK” (Cornell University, priority 2020, published 2024)

Key:
[1] = Drug tolerance during chronic oral administration (body weight, behavior); type: in vivo, mice
Method: (FIGS. 1C-D) Body weights of male nontransgenic (NTG) or hTauP301S mice treated with S3QEL2 (FIG. 1C) (S3, 5 mg/kg/day, PO in almond butter), S1QEL1.1 (FIG. 1D) (10 mg/kg/day, PO in almond butter), or vehicle. (FIG. 1E) Levels of S3QEL2 in the mouse brain following almond butter (AB) or chow administration at indicated doses for 21 days. (n=15 mice per dose). n=3-15 wild-type mice per condition. (FIG. 1F) Body weight of 4-5-month-old wild-type male mice treated with formulated chow containing S3QEL2 at indicated doses and durations (n=15 mice per dose).
A series of pharmacokinetic and drug tolerance experiments with S3QEL2 in adult wild-type and transgenic hTauP301S mice was first performed. Different administration routes and drug formulations were tested. […] Chow that was formulated to deliver 0, 5, 15, or 30 mg/kg/day of S3QEL2 was also tested.

[2] = system: primary neurons; assay: Tau-associated neuronal damage in primary neurons cultured alone (AAV-TauP301S, MAP2/NeuN immunostaining); type: cell-based, mouse; conditions: 10 μM; AAV human P301S tau
Method: (§1) Primary neurons were immunostained for MAP2 or NeuN following mock treatment or transduction with AAV encoding human P301S mutant tau under the synapsin-1 promoter. Neurons were cultured without (FIGS. 9A-9B) or with (FIGS. 9C-9D) primary mouse microglia. S3QEL2 (S3, 10 μM). n=4 per condition.
(§2) To begin dissecting the mechanisms by which S3QEL2 affects neural cell function and disease-linked processes, studies in primary cultures were conducted. Isolated mouse-derived neurons were transduced with adeno-associated viral vectors (AAVs) encoding wild-type or the P301S mutant form of the human tau protein (FIG. 8A). […] However, S3QEL reduced neuronal damage in the presence of astrocytes (approx. 30% astrocytes, FIG. 10A). Tau can also promote aberrant neuronal activity and hypersynchrony. S3QEL reduced aberrant neuronal firing in tau-transduced neurons co-cultured with astrocytes (FIGS. 10B-10C).

[3] = system: genes linked to neuroinflammation and glial reactivity; assay: Microfluidic RT-qPCR panel of neuroinflammation-related genes in hippocampi of hTauP301S mice; type: in vivo; conditions: 10-month-old hTauP301S mice, six weeks oral dosing, vs vehicle
Method: Subset of neuroinflammatory markers measured by RT-qPCR in hippocampi of 10-month-old male nontransgenic (NTG) or hTauP301S mice after 6 weeks of oral dosing with 5 mg/kg/day S3QEL2, 10 mg/kg/day S1QEL1.1, or vehicle. […] Average fold-change vs NTG. n=3-5 mice per group.
Next, studies were conducted to test if S3QEL2 or SIQEL1.1 altered the expression of genes involved in neuroinflammation and glial reactivity in hTauP301S mice.

[4] = system: Nrf2; assay: Hippocampal RNA levels of Nrf2 in hTauP301S mice; type: in vivo; conditions: 5 mg/kg/day, six weeks
[5] = system: STAT3; assay: Phospho-STAT3 and total STAT3 in primary astrocytes (Western blotting); type: cell-based, mice; conditions: for Phosphorylated STAT3 levels / Total STAT3 levels: S3QEL2 60 μM
Method: (FIGS. 11A-11B) Astrocytes isolated from P2-P3 mice were treated with oligomeric Aβ (3 μM) and S3QEL2 (S3, 20 μM) or vehicle (V) for 24 h and analyzed by qRT-PCR (FIG. 11A) or Western blotting (B) and normalized to vehicle controls. (FIG. 11B) Phospho-STAT3 levels were normalized to total STAT3 per sample. n=3 wells per condition; *p<0.05, **p<0.01, ***p<0.001, ANOVA with Dunnett's test.
(FIGS. 12A-12B) Astrocytes isolated from P2-P3 mice were treated with oligomeric Aβ (3 μM) (A) or A1 cocktail consisting of 30 ng/mL TNF-α, 3 ng/mL IL-1α, and 400 ng/mL Clq (B), and S3QEL2 (S3, 60 μM) or vehicle (Con) for indicated durations and analyzed by Western blotting. Phospho-STAT3 levels were normalized to total STAT3 per sample, and total STAT3 levels were normalized to γ-tubulin levels per sample. n≥3 wells per condition; *p<0.05, **p<0.01, ***p<0.001, one-way ANOVA with Tukey's multiple comparisons test.
(FIG. 17A) Astrocytes isolated from P2-P3 mice were treated with A1 cocktail consisting of 30 ng/ml TNF-α, 3 ng/ml IL-1α, and 400 ng/ml Clq, and S3QEL1.2 (3 μM) or vehicle for approximately 6 h and analyzed by Western blotting. Phospho-STAT3 levels were normalized to total STAT3 per sample. n=6 wells per condition. **p<0.01, ***p<0.001, one-way ANOVA with Dunnett's multiple comparisons test. (FIG. 17B) Astrocytes isolated from P2-P3 mice were treated with A1 cocktail consisting of 30 ng/ml TNF-α, 3 ng/ml IL-1α, and 400 ng/ml Clq for 24 h, and analyzed for levels of released H2O2 using Amplex UltraRed, a fluorogenic substrate that is a highly sensitive indicator of H2O2, in the presence of horseradish peroxidase and superoxide dismutase. n=6 wells per condition. *p=0.01, Student's t test. (FIG. 17C) Astrocytes isolated from P2-P3 mice were treated with vehicle or 3 ng/ml IL-1α and either S3QEL2 (20 μM), S3QEL1.2 (1 μM), or vehicle for approximately 24 h, and analyzed for levels of released H2O2 using Amplex UltraRed. n=6 wells per condition. *p<0.05, **p<0.01, ***p<0.001, two-way ANOVA with Bonferroni's multiple comparisons test.
Similar to oligomeric Aβ, A1 cocktail (which is a mixture of TNF-α, IL-1α, and Clq) induced astrocytic reactivity that is associated with synaptic damage and neurodegeneration.
Given that this compound has a different chemical structure, these findings indicate that S3QELs suppress astrocytic reactivity and neuroinflammatory responses through modulation of complex III ROS rather than modulation of other off-target or nonspecific mechanisms.

[6] = system: primary neurons with primary mouse microglia; assay: Tau-associated neuronal damage in primary neurons cultured with microglia; type: cell-based; conditions: 10 μM; AAV human P301S tau
Method: as §1, §2

[7] = system: isolated microglia; assay: Markers of reactivity and immune signaling in isolated microglia (qRT-PCR); type: cell-based, mice; conditions: S3QEL2 20 μM, 24 h
Method: Microglia isolated from P2-P3 mice were treated with lipopolysaccharide (LPS, 100 ng/ml) or oligomeric Aβ (3 μM), and S3QEL2 (20 μM) or vehicle for 24 h and analyzed by qRT-PCR. n=3 wells per condition.

[8] = A1 cocktail (TNF-α, IL-1α, Clq)

For `CCCN(CCC)c1ncnc2c1cnn2-c1ccc(C)c(C)c1` [S3QEL2], the “Adverse health effects such as weight loss or altered behavior” value ([1]; PO in almond butter, S3QEL2 5 mg/kg/day, S1QEL1.1 10 mg/kg/day, NTG or hTauP301S mice) was “did not result in obvious adverse health effects”, the “Tolerability of chow administration” value ([1]; chow 5, 15 or 30 mg/kg/day, high doses and long treatment durations, adult wild-type mice) was “tolerated well” and the “Tau-associated neuronal damage, neurons cultured alone” value [2] was “did not affect tau-associated neuronal damage”. For the same compound, the “Expression of genes linked to neuroinflammation and glial reactivity” value [3] was “reduced expression of diverse genes linked to neuroinflammation and glial reactivity”, the “Hippocampal Nrf2 RNA levels” value [4] was “reduced” and the “Phosphorylated STAT3 levels” value [5, 8] was “reduced”. For the same compound, the “Total STAT3 levels” value [5, 8] was “reduced”, the “Phospho-STAT3 levels normalized to total STAT3” value ([5]; oligomeric Aβ 3 μM, S3QEL2 20 μM, 24 h) was “reduced” and the “Phosphorylated STAT3 levels” value ([5]; oligomeric Aβ 3 μM) was “reduced”. The “Total STAT3 levels” value ([5]; oligomeric Aβ 3 μM) was “reduced”, the “Tau-associated neuronal damage, neurons cultured with microglia” value [6] was “did not affect tau-associated neuronal damage” and the “Markers of reactivity and immune signaling in microglia” value ([7]; LPS 100 ng/ml) was “did not affect markers of reactivity and immune signaling”. For the same compound, the “Markers of reactivity and immune signaling in microglia” value ([7]; oligomeric Aβ 3 μM) was “did not affect markers of reactivity and immune signaling”.
